Data from US5981576A, “(Methylsulfonyl)phenyl-2-(5H)-furanones as COX-2 inhibitors” (Merck Frosst Canada, Inc., priority 1998, dated 1999).

Each molecule was assayed against T1, COX-2 (Homo sapiens, UniProt P35354) (assay: cell-based). Settings: Table IV; CHO[hCOX-2] cells, 10 μM AA.
T1 sequence (P35354 18-604): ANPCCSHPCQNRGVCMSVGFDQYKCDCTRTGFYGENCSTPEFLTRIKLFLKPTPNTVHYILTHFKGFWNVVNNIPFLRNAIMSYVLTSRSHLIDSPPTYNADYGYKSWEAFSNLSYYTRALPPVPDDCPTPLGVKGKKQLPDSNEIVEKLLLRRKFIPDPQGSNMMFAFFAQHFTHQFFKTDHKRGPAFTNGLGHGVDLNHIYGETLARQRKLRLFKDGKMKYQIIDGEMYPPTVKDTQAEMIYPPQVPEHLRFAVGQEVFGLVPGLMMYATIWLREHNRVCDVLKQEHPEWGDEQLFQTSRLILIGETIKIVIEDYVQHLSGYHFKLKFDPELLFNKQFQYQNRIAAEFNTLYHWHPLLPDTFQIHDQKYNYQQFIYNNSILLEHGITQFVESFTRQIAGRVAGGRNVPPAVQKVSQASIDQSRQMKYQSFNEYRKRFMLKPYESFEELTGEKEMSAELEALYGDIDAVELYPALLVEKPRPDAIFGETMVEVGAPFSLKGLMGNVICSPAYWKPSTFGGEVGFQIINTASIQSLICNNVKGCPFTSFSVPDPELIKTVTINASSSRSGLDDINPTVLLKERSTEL
Procedure: Chinese hamster ovary (CHO) cell lines which have been stably transfected with an eukaryotic expression vector pCDNAIII containing either the human COX-1 or COX-2 cDNA's are used for the assay. These cell lines are referred to as CHO [hCOX-1] and CHO [hCOX-2], respectively. […] Cells (0.3×10^6 cells in 200 μl) are preincubated with 3 μl of the test drug or DMSO vehicle for 15 min at 37° C. […] Cells are then challenged in the presence or absence of drug with the AA/HBSS solution to yield a final concentration of 0.5 μM AA in the CHO[hCOX-1] assay and a final concentration of 10 μM AA in the CHO[hCOX-2] assay. […] The samples are centrifuged at 300×g at 4° C. for 10 min, and an aliquot of the clarified supernatant is appropriately diluted for the determination of PGE2 levels using an enzyme-linked immunoassay for PGE2 (Correlate PGE2 enzyme immunoassay kit, Assay Designs, Inc.). Cyclooxygenase activity in the absence of test compounds is determined as the difference in PGE2 levels of cells challenged with arachidonic acid versus the PGE2 levels in cells mock-challenged with ethanol vehicle. Inhibition of PGE2 synthesis by test compounds is calculated as a percentage of the activity in the presence of drug versus the activity in the positive control samples.

| IC50 [µM] | SMILES |
| --- | --- |
| > 5 | CC1(C)OC(=O)C(Oc2cccc(C(F)(F)F)c2)=C1c1ccc(S(C)(=O)=O)cc1 [Example 110] |
| 0.55 | Cc1ncc(OC2=C(c3ccc(S(C)(=O)=O)cc3)C(C)(C)OC2=O)cc1Br [Example 137] |
| 0.98 | CC1(C)OC(=O)C(Oc2ccc(C(C)(C)O)cc2)=C1c1ccc(S(C)(=O)=O)cc1 [Example 191] |

Each molecule was assayed against T1, COX-2 (assay: cell-based). Settings: Table IV; human whole blood, LPS-induced PGE2; read-out: COX-2 (IC50, μM) HWB.
From the text: (§1) As well, platelets in whole blood contain a large amount of the COX-1 enzyme. Immediately following blood clotting, platelets are activated through a thrombin-mediated mechanism. […] Therefore, the degree of selectivity by the test compound can be determined by measuring the levels of PGE2 after LPS induction (COX-2) and TxB2 following blood clotting (COX-1) in the same assay.
A. COX-2 (LPS-induced PGF, production)
Fresh blood is collected in heparinized tubes by venipuncture from both male and female volunteers. The subjects have no apparent inflammatory conditions and have not taken any NSAIDs for at least 7 days prior to blood collection. Plasma is immediately obtained from a 2 mL blood aliquot to use as blank (basal levels of PGE2).

| SMILES | IC50 [µM] |
| --- | --- |
| C[C@]1(CC(F)(F)F)OC(=O)C(Oc2ccc(Cl)cn2)=C1c1ccc(S(C)(=O)=O)cc1 [Example 130, (5R)-3-(5-Chloro-2-pyridyloxy)-5-methyl-4-(4-methylsulfonyl)phenyl-5-(2,2,2-trifluoroethyl)-5H-furan-2-one] | < 0.41 |
| Cc1ncc(OC2=C(c3ccc(S(C)(=O)=O)cc3)C(C)(C)OC2=O)cc1Br [Example 137] | 5.2 |
| CC1(COC2=C(c3ccc(S(C)(=O)=O)cc3)C(C)(C)OC2=O)CC1 [Example 173] | < 0.41 |
| CC1(C)OC(=O)C(Oc2ccc(C(C)(C)O)cc2)=C1c1ccc(S(C)(=O)=O)cc1 [Example 191] | 4.3 |

Each molecule was assayed against T2, COX-1 (Homo sapiens, UniProt P23219) (assay: biochemical). Settings: Table III; U937.
T2 sequence (P23219 24-599): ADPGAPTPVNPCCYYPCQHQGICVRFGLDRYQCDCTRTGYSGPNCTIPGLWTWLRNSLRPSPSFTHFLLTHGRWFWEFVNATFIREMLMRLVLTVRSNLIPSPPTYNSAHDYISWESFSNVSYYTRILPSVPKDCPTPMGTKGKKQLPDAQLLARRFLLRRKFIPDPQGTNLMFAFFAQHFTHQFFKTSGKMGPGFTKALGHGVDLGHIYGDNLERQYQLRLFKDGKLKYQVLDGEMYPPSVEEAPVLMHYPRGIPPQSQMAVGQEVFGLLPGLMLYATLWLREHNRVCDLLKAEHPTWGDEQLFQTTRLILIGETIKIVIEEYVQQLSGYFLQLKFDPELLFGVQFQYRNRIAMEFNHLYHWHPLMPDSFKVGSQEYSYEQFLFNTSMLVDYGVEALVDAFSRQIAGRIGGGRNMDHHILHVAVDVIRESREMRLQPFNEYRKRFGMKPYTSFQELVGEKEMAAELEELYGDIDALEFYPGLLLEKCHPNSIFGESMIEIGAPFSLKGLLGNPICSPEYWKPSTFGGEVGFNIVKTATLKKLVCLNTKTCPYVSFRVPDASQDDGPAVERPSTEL
Format: biochemical
Procedure: Compounds are tested as inhibitors of cyclooxygenase activity in whole cell cyclooxygenase assays. Both of these assays measure prostaglandin E2 synthesis in response to arachidonic acid, using a radioimmunoassay. Cells used for these assays are human osteosarcoma 143 cells (which specifically express COX-2) and human U-937 cells (which specifically express COX-1). In these assays, 100% activity is defined as the difference between prostaglandin E2 synthesis in the absence and presence of arachidonate.
U 937 cells are pelleted by centrifugation at 500×g for 5 min and washed once with phosphate-buffered saline and repelleted. Cells are resuspended in homogenization buffer consisting of 0.1 M Tris-HCl, pH 7.4, 10 mM EDTA, 2 μg/ml leupeptin, 2 μg/ml soybean trypsin inhibitor, 2 μg/ml aprotinin and 1 mM phenyl methyl sulfonyl fluoride. The cell suspension is sonicated 4 times for 10 sec and is centrifuged at 10,000×g for 10 min at 4° C. The supernatant is centrifuged at 100,000×g for 1 hr at 4 ° C. The 100,000×g microsomal pellet is resuspended in 0.1 M Tris-HCl, pH 7.4, 10 mM EDTA to approximately 7 mg protein/ml and stored at -80° C.
Microsomal preparations are thawed immediately prior to use, subjected to a brief sonication, and then diluted to a protein concentration of 125 μg/ml in 0.1 M Tris-HCl buffer, pH 7.4 containing 10 mM EDTA, 0.5 mM phenol, 1 mM reduced glutathione and 1 μM hematin. Assays are performed in duplicate in a final volume of 250 μl. Initially, 5 μd of DMSO vehicle or drug in DMSO are added to 20 μl of 0.1 M Tris-HCl buffer, pH 7.4 containing 10 mM EDTA in wells of a 96-deepwell polypropylene titre plate. 200 μl of the microsomal preparation are then added and pre-incubated for 15 min at room temperature before addition of 25 μl of […] in 0.1 M Tris-HCl and 10 mM EDTA, pH 7.4. […] Cyclooxygenase activity is defined as the difference between PGE2 levels in samples incubated in the presence of arachidonic acid and ethanol vehicle.

| IC50 [µM] | SMILES |
| --- | --- |
| 3 | CC1(C)OC(=O)C(Oc2cccc(F)c2)=C1c1ccc(S(C)(=O)=O)cc1 [Example 2, 3-(3-Fluorophenoxy)-5,5-dimethyl-4-(4-(methylsulfonyl)phenyl)-5H-furan-2-one] |
| 0.3 | CC1(C)OC(=O)C(Oc2ccc(F)cc2F)=C1c1ccc(S(C)(=O)=O)cc1 [Example 5, 3-(2,4-Difluorophenoxy)-5,5-dimethyl-4-(4-(methylsulfonyl)phenyl)-5H-furan-2-one] |
| 0.4 | CC1(C)OC(=O)C(Oc2ccc(Cl)cc2)=C1c1ccc(S(C)(=O)=O)cc1 [Example 6, 3-(4-Chlorophenoxy)-5,5-dimethyl-4-(4-(methylsulfonyl)phenyl)-5H-furan-2-one] |
| 1 | CC1(C)OC(=O)C(Oc2ccc(Cl)c(Cl)c2)=C1c1ccc(S(C)(=O)=O)cc1 [Example 7, 3-(3,4-Dichlorophenoxy)-5,5-dimethyl-4-(4-(methylsulfonyl)phenyl)-5H-furan-2-one] |
| 0.3 | CC1(C)OC(=O)C(Oc2ccc(F)cc2)=C1c1ccc(S(C)(=O)=O)cc1 [Example 8, 3-(4-Fluorophenoxy)-5,5-dimethyl-4-(4-(methylsulfonyl)phenyl)-5H-furan-2-one] |
| > 10 | CC1(C)OC(=O)C(Sc2ccc(F)cc2)=C1c1ccc(S(C)(=O)=O)cc1 [Example 9, 3-(4-Fluorophenylthio)-5,5-dimethyl-4-(4-(methylsulfonyl)phenyl)-5H-furan-2-one] |
| > 10 | CC1(C)OC(=O)C(Sc2cc(F)cc(F)c2)=C1c1ccc(S(C)(=O)=O)cc1 [Example 10, 3-(3,5-Difluorophenylthio)-5,5-dimethyl-4-(4-(methylsulfonyl)phenyl)-5H-furan-2-one] |
| > 10 | CC1(C)OC(=O)C(Nc2ccccc2)=C1c1ccc(S(C)(=O)=O)cc1 [Example 12, 3-(N-Phenylamino)-5,5-dimethyl-4-(4-(methylsulfonyl)phenyl)-5H-furan-2-one] |
| > 10 | CN(C1=C(c2ccc(S(C)(=O)=O)cc2)C(C)(C)OC1=O)c1ccccc1 [Example 13, 3-(N-Methyl-N-phenylamino)-5,5-dimethyl-4-(4-(methylsulfonyl)phenyl)-5H-furan-2-one] |
| > 10 | CC1(C)OC(=O)C(Cc2ccccc2)=C1c1ccc(S(C)(=O)=O)cc1 [Example 16, 3-Benzyl-5,5-dimethyl-4-(4-(methylsulfonyl)phenyl)-5H-furan-2-one] |
| > 10 | CC1(C)OC(=O)C(C(O)c2ccc(F)c(F)c2)=C1c1ccc(S(C)(=O)=O)cc1 (stereo not drawn) [Example 17, 3-(3,4-Difluorophenylhydroxymethyl)-5,5-dimethyl-4-(4-(methylsulfonyl)phenyl)-5H-furan-2-one] |
| > 30 | CC1(C)OC(=O)C(C(=O)c2ccc(F)c(F)c2)=C1c1ccc(S(C)(=O)=O)cc1 [Example 18, 3-(3,4-Difluorobenzoyl)-5,5-dimethyl-4-(4-(methylsulfonyl)phenyl)-5H-furan-2-one] |
| > 10 | CC1(C)OC(=O)C(C(=O)c2ccccc2)=C1c1ccc(S(C)(=O)=O)cc1 [Example 19b, 3-Benzoyl-5,5-dimethyl-4-(4-(methylsulfonyl)phenyl)-5H-furan-2-one] |
| 0.3 | CS(=O)(=O)c1ccc(C2=C(Oc3ccccc3)C(=O)OC23CCCC3)cc1 [Example 20, 4-(4-(Methylsulfonyl)phenyl)-3-phenoxy-1-oxaspiro[4.4]non-3-en-2-one] |
| > 10 | CS(=O)(=O)c1ccc(C2=C(Sc3ccccc3)C(=O)OC23CCCC3)cc1 [Example 21, 4-(4-(Methylsulfonyl)phenyl)-3-phenylthio-1-oxaspiro[4.4]non-3-en-2-one] |
| > 1 | NS(=O)(=O)c1ccc(C2=C(Sc3ccccc3)C(=O)OC23CCCC3)cc1 [Example 22, 4-(2-Oxo-3-phenylthio-1-oxa-spiro[4,4]non-3-en-4-yl)benzene-sulfonamide] |
| > 30 | CC1(C)OC(=O)C(Cc2ccc(F)cc2)=C1c1ccc(S(C)(=O)=O)cc1 [Example 23, 3-(4-Fluorobenzyl)-5,5-dimethyl-4-(4-(methylsulfonyl)phenyl)-5H-furan-2-one] |
| ~10 | CC1(C)OC(=O)C(Oc2ccccn2)=C1c1ccc(S(C)(=O)=O)cc1 [Example 26, 3-(2-pyridyloxy)-5,5-dimethyl-4-(4-(methylsulfonyl)phenyl)-5H-furan-2-one] |
| > 10 | Cc1cccc(OC2=C(c3ccc(S(C)(=O)=O)cc3)C(C)(C)OC2=O)n1 [Example 27, 3-(6-Methyl-2-pyridyloxy)-5,5-dimethyl-4-(4-(methylsulfonyl)phenyl)-5H-furan-2-one] |

These molecules were tested against T2, COX-1 (assay: Human whole blood assay, COX-1 (clotting-induced TxB2 production)). Settings: Table III, read-out: COX-1 (IC50) HWB.
Format: cell-based
From the text: as §1
B. COX-1 (Clotting-induced TxB2 production)
Fresh blood is collected into vacutainers containing no anticoagulants. Aliquots of 500 μL are immediately transferred to siliconized microcentrifuge tubes preloaded with 2 μL of either DMSO or a test compound at final concentrations varying from 10 nM to 30 μM. The tubes are vortexed and incubated at 37° C. for 1 hour to allow blood to clot. At the end of incubation, serum is obtained by centrifugation (12,000×g for 5 min.). A 100 μL aliquot of serum is mixed with 400 μL of methanol for protein precipitation.

| IC50 [µM] | SMILES |
| --- | --- |
| 6.1 | CC1(C)OC(=O)C(Oc2cc(F)cc(F)c2)=C1c1ccc(S(C)(=O)=O)cc1 [Example 3, 3-(3,5-Difluorophenoxy)-5,5-dimethyl-4-(4-(methylsulfonyl)phenyl)-5H-furan-2-one] |
